Measurements as given in ChEMBL document CHEMBL1159302, “Symplostatin 3, a new dolastatin 10 analogue from the marine cyanobacterium Symploca sp. VP452” (J Nat Prod, 2002).
Active and inactive are the calls of the source. No cut-off for these calls is given here. Non-standard residues stand in square brackets, D forms with d. Residues, ends and D or L forms follow the SMILES beside them. *: point of attachment. Dolaproine = CO[C@@H]([C@@H]1CCCN1)[C@@H](C)C(=O)O; Dil = CC[C@H](C)[C@H](NC)[C@@H](CC(=O)O)OC; NMe2Val = CC(C)[C@@H](C(=O)*)N(C)C; PhLac = O=C(O)[C@@H](O)Cc1ccccc1

Tests used:
Assay type in all cases: functional, cell-based
A10 [1] = experiment: Induction of actin filament disrupting activity in rat A10 cells by rhodamine-phalloidin staining
LoVo = experiment: Cytotoxicity against human LoVo cells by SRB assay
A10 [2] = experiment: Induction of cellular microtubule disrupting activity in rat A10 cells at 1 ug/ml after 24 hrs by indirect immunofluorescence technique
A10 [3] = experiment: Effect on morphology in rat A10 cells assessed as breakdown of nucleus into micronuclei
KB = experiment: Cytotoxicity against human KB cells by SRB assay
A10 [4] = experiment: Induction of cellular microtubule disrupting activity in rat A10 cells at 0.1 ug/ml after 24 hrs by indirect immunofluorescence technique

For `CC[C@H](C)[C@@H]([C@@H](CC(=O)N1CCC[C@H]1[C@H](OC)[C@@H](C)C(=O)O[C@@H](Cc1ccccc1)C(=O)O)OC)N(C)C(=O)[C@@H](NC(=O)[C@H](C(C)C)N(C)C)C(C)C` [SYMPLOSTATIN 3] (NMe2Val-V[Dil][Dolaproine][PhLac]-OH), the Activity (A10 [1]) was “inactive”, the IC50 (LoVo) was 10.3 nM and the Activity (A10 [2]) was “Active”. The Activity (A10 [3]) was “Active”, the IC50 (KB) was 3.9 nM and the Activity (A10 [4]) was “Active”.
